Values quoted from earlier work in patent US8492403B2, “Bicyclic derivatives as modulators of voltage gated ion channels” (Vertex Pharmaceuticals Incorporated, priority 2005, dated 2013).

Legend:
NaV 1.3 = NaV 1.3 (Homo sapiens, UniProt Q9NY46); conditions: read-out: TTX IC50; cited from earlier work
NaV 1.8 = NaV 1.8 (Homo sapiens, UniProt Q9Y5Y9); conditions: read-out: TTX IC50; cited from earlier work
[1] = neuropathic pain; cited from earlier work

Chain of NaV 1.8 (Q9Y5Y9 whole entry, looked up): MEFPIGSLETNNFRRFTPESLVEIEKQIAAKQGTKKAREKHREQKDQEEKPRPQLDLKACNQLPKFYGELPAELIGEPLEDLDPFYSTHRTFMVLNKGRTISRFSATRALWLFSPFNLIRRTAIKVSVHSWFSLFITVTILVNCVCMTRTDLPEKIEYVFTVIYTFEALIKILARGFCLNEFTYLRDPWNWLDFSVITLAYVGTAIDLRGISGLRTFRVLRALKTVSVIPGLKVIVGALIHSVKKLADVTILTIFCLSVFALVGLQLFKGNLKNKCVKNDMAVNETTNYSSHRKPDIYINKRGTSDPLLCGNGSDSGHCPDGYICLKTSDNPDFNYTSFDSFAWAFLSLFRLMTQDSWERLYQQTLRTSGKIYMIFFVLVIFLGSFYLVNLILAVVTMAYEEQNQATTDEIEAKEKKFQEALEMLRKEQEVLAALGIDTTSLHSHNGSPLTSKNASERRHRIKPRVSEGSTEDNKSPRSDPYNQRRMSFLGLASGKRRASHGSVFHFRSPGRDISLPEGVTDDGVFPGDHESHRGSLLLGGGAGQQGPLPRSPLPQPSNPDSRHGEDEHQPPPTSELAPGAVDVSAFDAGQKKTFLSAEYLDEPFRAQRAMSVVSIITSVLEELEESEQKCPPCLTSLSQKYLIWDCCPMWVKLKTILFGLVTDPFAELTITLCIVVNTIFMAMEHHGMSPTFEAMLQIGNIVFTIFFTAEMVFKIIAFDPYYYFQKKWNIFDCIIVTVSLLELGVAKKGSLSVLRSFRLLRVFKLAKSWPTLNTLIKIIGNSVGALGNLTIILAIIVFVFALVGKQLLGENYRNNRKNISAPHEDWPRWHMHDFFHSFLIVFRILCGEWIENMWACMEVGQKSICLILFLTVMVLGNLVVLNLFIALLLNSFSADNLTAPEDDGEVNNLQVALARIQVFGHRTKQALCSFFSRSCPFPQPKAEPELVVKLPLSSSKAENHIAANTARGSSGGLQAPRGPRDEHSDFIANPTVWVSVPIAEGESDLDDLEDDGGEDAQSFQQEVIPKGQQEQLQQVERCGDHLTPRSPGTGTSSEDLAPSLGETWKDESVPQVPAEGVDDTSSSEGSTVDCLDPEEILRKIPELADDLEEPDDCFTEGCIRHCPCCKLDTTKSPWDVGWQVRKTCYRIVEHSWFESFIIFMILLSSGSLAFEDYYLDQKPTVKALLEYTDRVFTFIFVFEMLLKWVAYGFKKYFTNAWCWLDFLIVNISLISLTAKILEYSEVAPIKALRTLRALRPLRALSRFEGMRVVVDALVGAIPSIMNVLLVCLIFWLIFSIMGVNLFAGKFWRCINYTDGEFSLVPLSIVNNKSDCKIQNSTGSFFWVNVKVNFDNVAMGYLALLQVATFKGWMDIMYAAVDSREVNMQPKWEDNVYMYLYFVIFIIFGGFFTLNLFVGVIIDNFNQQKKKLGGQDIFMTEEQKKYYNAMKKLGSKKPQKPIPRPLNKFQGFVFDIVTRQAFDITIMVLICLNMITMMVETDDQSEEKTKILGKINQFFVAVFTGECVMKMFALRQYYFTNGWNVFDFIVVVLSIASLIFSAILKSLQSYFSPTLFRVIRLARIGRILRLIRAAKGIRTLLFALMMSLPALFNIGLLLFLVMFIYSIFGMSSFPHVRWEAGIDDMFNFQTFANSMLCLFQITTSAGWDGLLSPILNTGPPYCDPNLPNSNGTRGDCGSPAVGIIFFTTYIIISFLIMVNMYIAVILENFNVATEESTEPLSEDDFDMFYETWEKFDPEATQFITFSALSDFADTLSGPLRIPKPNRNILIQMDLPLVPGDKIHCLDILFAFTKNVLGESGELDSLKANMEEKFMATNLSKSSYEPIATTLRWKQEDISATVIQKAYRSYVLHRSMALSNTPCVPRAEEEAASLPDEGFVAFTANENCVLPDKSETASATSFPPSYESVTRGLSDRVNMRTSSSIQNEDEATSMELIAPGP
Chain of NaV 1.3 (Q9NY46 whole entry, looked up): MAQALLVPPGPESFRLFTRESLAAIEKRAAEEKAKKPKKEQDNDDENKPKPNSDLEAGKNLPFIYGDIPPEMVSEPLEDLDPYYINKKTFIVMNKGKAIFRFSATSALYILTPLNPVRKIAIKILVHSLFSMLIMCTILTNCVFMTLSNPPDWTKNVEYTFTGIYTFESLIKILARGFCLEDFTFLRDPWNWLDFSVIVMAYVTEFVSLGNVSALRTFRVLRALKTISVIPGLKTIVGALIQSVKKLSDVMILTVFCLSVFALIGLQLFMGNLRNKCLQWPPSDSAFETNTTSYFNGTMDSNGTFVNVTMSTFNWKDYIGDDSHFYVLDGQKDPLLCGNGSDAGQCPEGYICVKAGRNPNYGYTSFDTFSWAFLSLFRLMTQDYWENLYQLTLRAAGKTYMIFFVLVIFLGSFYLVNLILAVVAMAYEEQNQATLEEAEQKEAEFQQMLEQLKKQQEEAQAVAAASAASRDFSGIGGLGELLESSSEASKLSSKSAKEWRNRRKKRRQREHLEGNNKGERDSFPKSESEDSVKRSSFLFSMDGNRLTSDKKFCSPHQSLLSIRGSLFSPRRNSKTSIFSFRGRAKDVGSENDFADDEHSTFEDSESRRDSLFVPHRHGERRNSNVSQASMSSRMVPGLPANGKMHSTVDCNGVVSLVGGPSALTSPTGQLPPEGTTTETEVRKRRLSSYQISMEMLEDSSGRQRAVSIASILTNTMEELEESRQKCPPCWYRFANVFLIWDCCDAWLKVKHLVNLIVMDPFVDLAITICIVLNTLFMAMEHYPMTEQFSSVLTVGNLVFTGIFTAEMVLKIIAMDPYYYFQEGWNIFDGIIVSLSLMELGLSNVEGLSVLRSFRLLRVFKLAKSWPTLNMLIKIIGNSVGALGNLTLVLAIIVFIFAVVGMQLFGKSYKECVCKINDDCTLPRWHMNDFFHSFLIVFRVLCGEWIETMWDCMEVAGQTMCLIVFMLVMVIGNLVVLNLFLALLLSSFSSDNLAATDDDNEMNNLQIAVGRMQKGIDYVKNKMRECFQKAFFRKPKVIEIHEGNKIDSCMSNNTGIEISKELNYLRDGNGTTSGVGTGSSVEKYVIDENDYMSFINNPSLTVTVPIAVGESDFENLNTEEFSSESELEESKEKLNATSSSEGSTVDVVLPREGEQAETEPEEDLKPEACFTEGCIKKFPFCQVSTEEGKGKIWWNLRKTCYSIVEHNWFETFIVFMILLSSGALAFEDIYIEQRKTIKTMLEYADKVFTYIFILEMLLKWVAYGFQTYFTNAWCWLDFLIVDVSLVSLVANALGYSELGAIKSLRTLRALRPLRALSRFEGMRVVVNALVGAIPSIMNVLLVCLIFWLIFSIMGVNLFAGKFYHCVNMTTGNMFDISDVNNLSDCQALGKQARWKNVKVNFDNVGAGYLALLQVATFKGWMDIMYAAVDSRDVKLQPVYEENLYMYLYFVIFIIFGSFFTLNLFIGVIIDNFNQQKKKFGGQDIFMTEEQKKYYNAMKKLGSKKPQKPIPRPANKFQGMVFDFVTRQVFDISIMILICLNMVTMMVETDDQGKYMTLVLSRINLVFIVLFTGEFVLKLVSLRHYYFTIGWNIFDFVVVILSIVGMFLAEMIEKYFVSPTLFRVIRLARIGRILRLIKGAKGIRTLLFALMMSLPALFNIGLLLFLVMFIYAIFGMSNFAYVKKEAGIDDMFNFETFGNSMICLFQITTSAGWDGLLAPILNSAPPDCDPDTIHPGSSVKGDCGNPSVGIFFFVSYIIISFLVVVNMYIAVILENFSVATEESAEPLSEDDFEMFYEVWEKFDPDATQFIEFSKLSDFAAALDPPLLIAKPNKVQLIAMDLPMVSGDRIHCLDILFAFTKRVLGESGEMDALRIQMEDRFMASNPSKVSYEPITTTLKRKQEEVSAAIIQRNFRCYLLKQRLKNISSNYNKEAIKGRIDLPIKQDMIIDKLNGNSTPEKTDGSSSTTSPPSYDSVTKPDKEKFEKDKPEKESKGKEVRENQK

Structure (SMILES) | IC50 (NaV 1.3) [nM] | IC50 (NaV 1.8) [nM] | share of patients in which it works [1] [%]
NC1=N[C@H](O)[C@H]2[C@H]3O[C@]4(O)O[C@@H]([C@@H](O)[C@@]2(N1)[C@@H]4O)[C@]3(O)CO [TTX, tetrodotoxin] | 15 | > 50000 | –
NCC1(CC(=O)O)CCCCC1 [Gabapentin] | – | – | 60
